Measured values reported in patent publication US10167262B2, “Herbicidal substituted 3-arylpyrazoles” (FMC CORPORATION, priority 2014, dated 2019).

Legend:
Type in all cases: in vivo
[1] = tested on: wheat (Triticum aestivum); assay: Test A pre-/postemergence greenhouse herbicide test, visual injury rating 0-100; conditions: 1000 g ai/ha
Outline: (§1)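 Scale 0–100 (none to complete control), visual, versus untreated controls after approx. 10 greenhouse days. Pre: directed soil spray at planting. Post: 2–10 cm, one- to two-leaf plants. Non-phytotoxic solvent plus surfactant vehicle.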

[2] = tested on: giant foxtail (Setaria faberii); assay: as above; conditions: 1000 g ai/ha
Outline: as §1

[3] = tested on: large (Lg) crabgrass (Digitaria sanguinalis); assay: as above; conditions: 1000 g ai/ha
Outline: as §1

[4] = tested on: pigweed (Amaranthus retroflexus); assay: as above; conditions: 1000 g ai/ha
Outline: as §1

[5] = tested on: morningglory (Ipomoea spp.); assay: as above; conditions: 1000 g ai/ha
Outline: as §1

[6] = tested on: barnyardgrass (Echinochloa crus-galli); assay: as above; conditions: 1000 g ai/ha
Outline: as §1

[7] = tested on: velvetleaf (Abutilon theophrasti); assay: as above; conditions: 1000 g ai/ha
Outline: as §1

corn (Zea mays) = assay: as above; conditions: 1000 g ai/ha
Outline: as §1

[8] = tested on: chickweed (common chickweed, Stellaria media); assay: Test C postemergence greenhouse test, plant response rating 0-100; conditions: for Plant response rating, Chickweed: 250 g ai/ha, scale 0 to 100
Outline: (§2)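 Postemergence spray onto 1–4-leaf potted seedlings, greenhouse incubation 13–15 days. Visual percent-control rating (0–100) against untreated plants.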

wild oat (Avena fatua) = assay: as above; conditions: for Plant response rating, Oat, Wild: 250 g ai/ha, scale 0 to 100
Outline: as §2

kochia (Kochia scoparia) = assay: as above; conditions: for Plant response rating, Kochia: 250 g ai/ha, scale 0 to 100
Outline: as §2

[9] = tested on: giant foxtail (Setaria faberii); assay: Test C pre-/postemergence greenhouse test, plant response rating 0-100
Outline: (§3)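 Scores run from 0, no effect, to 100, complete control, assigned by eye after treated plants and controls spent 13 to 15 days in a greenhouse. Soil-applied treatment went onto freshly sown seed in loam and sand; foliar treatment hit seedlings at the 1- to 4-leaf stage.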

soybean (Glycine max) = assay: as above
Outline: as §3

[10] = tested on: Italian ryegrass (Lolium multiflorum); assay: as above
Outline: as §3

[11] = Postemergence, 250 g ai/ha, scale 0 to 100

O=C(c1cncc(F)c1)c1c[nH]nc1-c1cc(Cl)cc(Cl)c1 [Compound 19]
100: Plant response rating (0 to 100 scale), Pigweed ([4]; Postemergence) | Plant response rating (0 to 100 scale), Pigweed ([4]; Preemergence) | Plant response rating (0 to 100 scale), Velvetleaf ([7]; Postemergence)
80: Plant response rating (0 to 100), Chickweed ([8]; 62 g ai/ha) | Plant response rating (0 to 100), Kochia (kochia (Kochia scoparia); 62 g ai/ha)
10: Plant response rating, Ryegrass, Italian ([10]; Preemergence, 250 g ai/ha)
85: Plant response rating (0 to 100), Kochia (kochia (Kochia scoparia); 125 g ai/ha) | Plant response rating, Soybean (soybean (Glycine max); Preemergence, 250 g ai/ha)
90: Plant response rating (0 to 100 scale), Velvetleaf ([7]; Preemergence) | Plant response rating, Kochia (kochia (Kochia scoparia))
0: Plant response rating (0 to 100 scale), Wheat ([1]; Postemergence) | Plant response rating (0 to 100 scale), Wheat ([1]; Preemergence) | Plant response rating (0 to 100 scale), Foxtail, Giant ([2]; Postemergence) | Plant response rating (0 to 100 scale), Foxtail, Giant ([2]; Preemergence) | Plant response rating (0 to 100 scale), Crabgrass, Large ([3]; Postemergence) | Plant response rating (0 to 100 scale), Crabgrass, Large ([3]; Preemergence) | Plant response rating (0 to 100 scale), Morningglory ([5]; Postemergence) | Plant response rating (0 to 100 scale), Morningglory ([5]; Preemergence) | Plant response rating (0 to 100 scale), Barnyardgrass ([6]; Postemergence) | Plant response rating (0 to 100 scale), Barnyardgrass ([6]; Preemergence) | Plant response rating (0 to 100 scale), Corn (corn (Zea mays); Postemergence) | Plant response rating (0 to 100 scale), Corn (corn (Zea mays); Preemergence) | Plant response rating (0 to 100), Oat, Wild (wild oat (Avena fatua); 62 g ai/ha) | Plant response rating (0 to 100), Oat, Wild (wild oat (Avena fatua); 125 g ai/ha) | Plant response rating, Oat, Wild (wild oat (Avena fatua)) | Plant response rating (0 to 100), Foxtail, Giant ([9]; Postemergence, 31 g ai/ha) | Plant response rating (0 to 100), Foxtail, Giant ([9]; Postemergence, 62 g ai/ha) | Plant response rating, Foxtail, Giant ([9]; Preemergence, 31 g ai/ha) | Plant response rating, Foxtail, Giant ([9]; Preemergence, 62 g ai/ha) | Plant response rating, Foxtail, Giant ([9]; Preemergence, 125 g ai/ha) | Plant response rating, Foxtail, Giant ([9]; Preemergence, 250 g ai/ha) | Plant response rating (0 to 100), Soybean (soybean (Glycine max); Postemergence, 62 g ai/ha) | Plant response rating (0 to 100), Soybean (soybean (Glycine max); Postemergence, 125 g ai/ha) | Plant response rating, Soybean (soybean (Glycine max); [11]) | Plant response rating, Soybean (soybean (Glycine max); Preemergence, 62 g ai/ha) | Plant response rating, Soybean (soybean (Glycine max); Preemergence, 125 g ai/ha) | Plant response rating (0 to 100), Ryegrass, Italian ([10]; Postemergence, 62 g ai/ha) | Plant response rating (0 to 100), Ryegrass, Italian ([10]; Postemergence, 125 g ai/ha) | Plant response rating, Ryegrass, Italian ([10]; Preemergence, 62 g ai/ha) | Plant response rating, Ryegrass, Italian ([10]; Preemergence, 125 g ai/ha)
98: Plant response rating (0 to 100), Chickweed ([8]; 125 g ai/ha) | Plant response rating, Chickweed [8]
95: Plant response rating (0 to 100), Chickweed ([8]; 31 g ai/ha)
5: Plant response rating (0 to 100), Foxtail, Giant ([9]; Postemergence, 125 g ai/ha) | Plant response rating, Foxtail, Giant [9, 11] | Plant response rating, Ryegrass, Italian [10, 11]

Cn1cc(C(=NN2CCCC2)c2ccccc2)c(-c2cc(Cl)c(Cl)c(Cl)c2)n1 [Compound 25]
0: Plant response rating (0 to 100 scale), Wheat ([1]; Postemergence) | Plant response rating (0 to 100 scale), Wheat ([1]; Preemergence) | Plant response rating (0 to 100 scale), Foxtail, Giant ([2]; Postemergence) | Plant response rating (0 to 100 scale), Foxtail, Giant ([2]; Preemergence) | Plant response rating (0 to 100 scale), Crabgrass, Large ([3]; Postemergence) | Plant response rating (0 to 100 scale), Crabgrass, Large ([3]; Preemergence) | Plant response rating (0 to 100 scale), Morningglory ([5]; Postemergence) | Plant response rating (0 to 100 scale), Morningglory ([5]; Preemergence) | Plant response rating (0 to 100 scale), Barnyardgrass ([6]; Postemergence) | Plant response rating (0 to 100 scale), Barnyardgrass ([6]; Preemergence) | Plant response rating (0 to 100 scale), Corn (corn (Zea mays); Postemergence) | Plant response rating (0 to 100 scale), Corn (corn (Zea mays); Preemergence) | Plant response rating (0 to 100), Oat, Wild (wild oat (Avena fatua); 62 g ai/ha) | Plant response rating (0 to 100), Oat, Wild (wild oat (Avena fatua); 125 g ai/ha) | Plant response rating (0 to 100), Kochia (kochia (Kochia scoparia); 62 g ai/ha) | Plant response rating (0 to 100), Foxtail, Giant ([9]; Postemergence, 31 g ai/ha) | Plant response rating (0 to 100), Foxtail, Giant ([9]; Postemergence, 62 g ai/ha) | Plant response rating (0 to 100), Foxtail, Giant ([9]; Postemergence, 125 g ai/ha) | Plant response rating, Foxtail, Giant [9, 11] | Plant response rating (0 to 100), Soybean (soybean (Glycine max); Postemergence, 62 g ai/ha) | Plant response rating (0 to 100), Soybean (soybean (Glycine max); Postemergence, 125 g ai/ha) | Plant response rating (0 to 100), Ryegrass, Italian ([10]; Postemergence, 62 g ai/ha) | Plant response rating (0 to 100), Ryegrass, Italian ([10]; Postemergence, 125 g ai/ha)
90: Plant response rating (0 to 100 scale), Pigweed ([4]; Postemergence) | Plant response rating (0 to 100 scale), Pigweed ([4]; Preemergence)
10: Plant response rating (0 to 100), Chickweed ([8]; 31 g ai/ha) | Plant response rating, Oat, Wild (wild oat (Avena fatua)) | Plant response rating, Soybean (soybean (Glycine max); [11])
20: Plant response rating (0 to 100 scale), Velvetleaf ([7]; Preemergence)
15: Plant response rating (0 to 100), Kochia (kochia (Kochia scoparia); 125 g ai/ha) | Plant response rating, Kochia (kochia (Kochia scoparia))
75: Plant response rating (0 to 100), Chickweed ([8]; 62 g ai/ha) | Plant response rating (0 to 100), Chickweed ([8]; 125 g ai/ha) | Plant response rating, Chickweed [8]
5: Plant response rating, Ryegrass, Italian [10, 11]
80: Plant response rating (0 to 100 scale), Velvetleaf ([7]; Postemergence)
